Reference: paper PMC5681922, “Systemic Responses of Multidrug-Resistant Pseudomonas aeruginosa and Acinetobacter baumannii Following Exposure to the Antimicrobial Peptide Cathelicidin-BF Imply Multiple Intracellular Targets” (Frontiers in Cellular and Infection Microbiology, 2017)
Read-outs that look alike come from different tables or passages of the source. No end group written: not given here.

Columns and labels:
[1] = test system: L929 (murine fibroblast cells); details: 400 mg/L; XTT, 24 h, serum-free DMEM
Description: (§1) Cell viability was measured using cell proliferation kit II (XTT) (Roche). Cells, including A549 (adenocarcinomic human alveolar basal epithelial cells), 293FT (human embryonic kidney cells) and L929 (murine fibroblast cells), were cultured in Dulbecco's […] (DMEM) supplemented with 10% fetal bovine serum, 100 U penicillin/mL, and 100 μg streptomycin/mL in a humidified 5% CO2 atmosphere at 37°C. After digestion with trypsin, the cells were diluted in serum-free DMEM without phenol red to a final concentration of 2 × 10^5 cell/mL, seeded in 96 well plates (100 μl/well) and cultured overnight until adhesion. Cathelicidin-BF dissolved in serum-free DMEM without phenol red was added to wells, and the plates were incubated for 24 h as previously described. Subsequent procedures were performed according to the kit. Briefly, XTT labeling reagent (sodium 3′-[1-(phenylaminocarbonyl)-3,4-tetrazolium]-bis-4-methoxy-6-nitro) benzene sulfonic acid hydrate) in Roswell Park Memorial Institute (RPMI) 1640 medium without phenol red was mixed with electron-coupling reagent PMS (N-methyl dibenzopyrazine methyl sulfate) at a volume ratio of 50:1 to make the working solution. Fifty microliters of the XTT labeling mixture was added to each well and incubated at the same conditions for 6 h. Absorbance [A492 nm-A690 nm] stands for the quantification of viable cells.
(§2) Figure 2 Cytotoxicity of cathelicidin-BF. Hemolysis and cell viability assays were conducted to test the cytotoxicity of cathelicidin-BF to mammalian cells.

[2] = test system: A549 (adenocarcinomic human alveolar basal epithelial cells); details: 400 mg/L; XTT, 24 h, serum-free DMEM
Description: as §1, §2

[3] = test system: 293FT (human embryonic kidney cells); details: XTT, 24 h, serum-free DMEM
Description: as §1, §2

[4] = treated vs untreated, iTRAQ, cathelicidin-BF change not categorized as differentially expressed

Q: Which Pa-Ca/Pa-C (P. aeruginosa 1409; iTRAQ abundance ratio Pa-Cathelicidin/Pa-Control of protein Q9HYK2 (GN=PA3402)) does the source give for “KFFRKLKKSVKKRAKEFFKKPRVIGVSIPF [cathelicidin-BF]” here?
A: Its Pa-Ca/Pa-C is 1.136.

Q: What about the Pa-Ca/Pa-C (P. aeruginosa 1409; iTRAQ abundance ratio Pa-Cathelicidin/Pa-Control of protein Q9HYU6 (GN=PA3297)) of the same sequence?
A: Its Pa-Ca/Pa-C is 0.9414.

Q: What about the Pa-Ca/Pa-C (P. aeruginosa 1409; iTRAQ abundance ratio Pa-Cathelicidin/Pa-Control of protein Q9HYV7 (GN=PA3286)) of the same sequence?
A: Its Pa-Ca/Pa-C is 0.9022.

Q: And the Pa-Ca/Pa-C (P. aeruginosa 1409; iTRAQ abundance ratio Pa-Cathelicidin/Pa-Control of protein Q9HYZ3 (GN=apeB))?
A: The Pa-Ca/Pa-C was 1.0565.

Q: And the Pa-Ca/Pa-C (P. aeruginosa 1409; iTRAQ abundance ratio Pa-Cathelicidin/Pa-Control of protein Q9HZD8 (GN=PA3070))?
A: The Pa-Ca/Pa-C was 0.9912.

Q: And the Pa-Ca/Pa-C (P. aeruginosa 1409; iTRAQ abundance ratio Pa-Cathelicidin/Pa-Control of protein Q9HZF4 (GN=PA3054))?
A: Its Pa-Ca/Pa-C is 0.9528.

Q: What about the Pa-Ca/Pa-C (P. aeruginosa 1409; iTRAQ abundance ratio Pa-Cathelicidin/Pa-Control of protein Q9HZG0 (GN=rlmL)) of the same sequence?
A: The Pa-Ca/Pa-C was 0.9995.

Q: What about the Pa-Ca/Pa-C (P. aeruginosa 1409; iTRAQ abundance ratio Pa-Cathelicidin/Pa-Control of protein Q9HZG4 (GN=PA3044)) of the same sequence?
A: The Pa-Ca/Pa-C was 1.123.

Q: And the Pa-Ca/Pa-C (P. aeruginosa 1409; iTRAQ abundance ratio Pa-Cathelicidin/Pa-Control of protein Q9HZM6 (GN=ptpA))?
A: Its Pa-Ca/Pa-C is 0.8326.

Q: What about the Pa-Ca/Pa-C (P. aeruginosa 1409; iTRAQ abundance ratio Pa-Cathelicidin/Pa-Control of protein Q9HZN0 (GN=PA2974)) of the same sequence?
A: Its Pa-Ca/Pa-C is 1.056.

Q: What about the Pa-Ca/Pa-C (P. aeruginosa 1409; iTRAQ abundance ratio Pa-Cathelicidin/Pa-Control of protein Q9HZY0 (GN=mttC)) of the same sequence?
A: The Pa-Ca/Pa-C was 1.0109.

Q: And the Pa-Ca/Pa-C (P. aeruginosa 1409; iTRAQ abundance ratio Pa-Cathelicidin/Pa-Control of protein Q9I0F5 (GN=PA2683))?
A: Its Pa-Ca/Pa-C is 1.0558.

Q: And the Pa-Ca/Pa-C (P. aeruginosa 1409; iTRAQ abundance ratio Pa-Cathelicidin/Pa-Control of protein Q9I0I2 (GN=PA2656))?
A: Its Pa-Ca/Pa-C is 1.043.

Q: What about the Pa-Ca/Pa-C (P. aeruginosa 1409; iTRAQ abundance ratio Pa-Cathelicidin/Pa-Control of protein Q9I0Q7 (GN=kynA)) of the same sequence?
A: Its Pa-Ca/Pa-C is 0.9342.

Q: And the Pa-Ca/Pa-C (P. aeruginosa 1409; iTRAQ abundance ratio Pa-Cathelicidin/Pa-Control of protein Q9I0R5 (GN=PA2571))?
A: Its Pa-Ca/Pa-C is 0.9216.

Q: What about the Pa-Ca/Pa-C (P. aeruginosa 1409; iTRAQ abundance ratio Pa-Cathelicidin/Pa-Control of protein Q9I0Z9 (GN=PA2483)) of the same sequence?
A: Its Pa-Ca/Pa-C is 0.8854.

Q: What about the Pa-Ca/Pa-C (P. aeruginosa 1409; iTRAQ abundance ratio Pa-Cathelicidin/Pa-Control of protein Q9I1H9 (GN=PA2296)) of the same sequence?
A: The Pa-Ca/Pa-C was 0.9095.

Q: What about the Pa-Ca/Pa-C (P. aeruginosa 1409; iTRAQ abundance ratio Pa-Cathelicidin/Pa-Control of protein Q9I1I4 (GN=PA2291)) of the same sequence?
A: Its Pa-Ca/Pa-C is 1.111.

Q: And the Pa-Ca/Pa-C (P. aeruginosa 1409; iTRAQ abundance ratio Pa-Cathelicidin/Pa-Control of protein Q9I1M1 (GN=bkdA2))?
A: The Pa-Ca/Pa-C was 1.005.

Q: And the Pa-Ca/Pa-C (P. aeruginosa 1409; iTRAQ abundance ratio Pa-Cathelicidin/Pa-Control of protein Q9I2G3 (GN=PA1941))?
A: Its Pa-Ca/Pa-C is 0.9926.

Q: And the Pa-Ca/Pa-C (P. aeruginosa 1409; iTRAQ abundance ratio Pa-Cathelicidin/Pa-Control of protein Q9I2R3 (GN=PA1832))?
A: The Pa-Ca/Pa-C was 0.9008.

Q: What about the Pa-Ca/Pa-C (P. aeruginosa 1409; iTRAQ abundance ratio Pa-Cathelicidin/Pa-Control of protein Q9I2T1 (GN=gloB)) of the same sequence?
A: The Pa-Ca/Pa-C was 0.964.

Q: And the Pa-Ca/Pa-C (P. aeruginosa 1409; iTRAQ abundance ratio Pa-Cathelicidin/Pa-Control of protein Q9I2Y1 (GN=pabB))?
A: Its Pa-Ca/Pa-C is 0.998.

Q: What about the Pa-Ca/Pa-C (P. aeruginosa 1409; iTRAQ abundance ratio Pa-Cathelicidin/Pa-Control of protein Q9I3F3 (GN=tusA)) of the same sequence?
A: Its Pa-Ca/Pa-C is 0.8155.

Q: And the Pa-Ca/Pa-C (P. aeruginosa 1409; iTRAQ abundance ratio Pa-Cathelicidin/Pa-Control of protein Q9I3J6 (GN=PA1517))?
A: Its Pa-Ca/Pa-C is 1.049.

Q: What about the Pa-Ca/Pa-C (P. aeruginosa 1409; iTRAQ abundance ratio Pa-Cathelicidin/Pa-Control of protein Q9I3L0 (GN=gcl)) of the same sequence?
A: Its Pa-Ca/Pa-C is 0.9901.

Q: And the Pa-Ca/Pa-C (P. aeruginosa 1409; iTRAQ abundance ratio Pa-Cathelicidin/Pa-Control of protein Q9I4B6 (GN=PA1222))?
A: The Pa-Ca/Pa-C was 0.8647.

Q: And the Pa-Ca/Pa-C (P. aeruginosa 1409; iTRAQ abundance ratio Pa-Cathelicidin/Pa-Control of protein Q9I4H9 (GN=PA1158))?
A: Its Pa-Ca/Pa-C is 1.038.

Q: And the Pa-Ca/Pa-C (P. aeruginosa 1409; iTRAQ abundance ratio Pa-Cathelicidin/Pa-Control of protein Q9I4N6 (GN=fliS))?
A: The Pa-Ca/Pa-C was 1.132.

Q: And the Pa-Ca/Pa-C (P. aeruginosa 1409; iTRAQ abundance ratio Pa-Cathelicidin/Pa-Control of protein Q9I4N9 (GN=PA1090))?
A: Its Pa-Ca/Pa-C is 1.038.

Q: What about the Pa-Ca/Pa-C (P. aeruginosa 1409; iTRAQ abundance ratio Pa-Cathelicidin/Pa-Control of protein Q9I4R3 (GN=PA1061)) of the same sequence?
A: Its Pa-Ca/Pa-C is 0.9798.

Q: What about the Pa-Ca/Pa-C (P. aeruginosa 1409; iTRAQ abundance ratio Pa-Cathelicidin/Pa-Control of protein Q9I5M1 (GN=migA)) of the same sequence?
A: Its Pa-Ca/Pa-C is 0.9698.

Q: What about the Pa-Ca/Pa-C (P. aeruginosa 1409; iTRAQ abundance ratio Pa-Cathelicidin/Pa-Control of protein Q9I5U7 (GN=apaH)) of the same sequence?
A: Its Pa-Ca/Pa-C is 1.014.

Q: What about the Pa-Ca/Pa-C (P. aeruginosa 1409; iTRAQ abundance ratio Pa-Cathelicidin/Pa-Control of protein Q9I5V3 (GN=cca)) of the same sequence?
A: The Pa-Ca/Pa-C was 0.7612.

Q: And the Pa-Ca/Pa-C (P. aeruginosa 1409; iTRAQ abundance ratio Pa-Cathelicidin/Pa-Control of protein Q9I6B3 (GN=trmB))?
A: Its Pa-Ca/Pa-C is 1.011.

Q: What about the Pa-Ca/Pa-C (P. aeruginosa 1409; iTRAQ abundance ratio Pa-Cathelicidin/Pa-Control of protein Q9I7A7 (GN=PA0020)) of the same sequence?
A: The Pa-Ca/Pa-C was 1.051.

Q: And the Pa-Ca/Pa-C (P. aeruginosa 1409; iTRAQ abundance ratio Pa-Cathelicidin/Pa-Control of protein Q9I022 (GN=PA2821))?
A: Its Pa-Ca/Pa-C is 0.7721.

Q: What about the Pa-Ca/Pa-C (P. aeruginosa 1409; iTRAQ abundance ratio Pa-Cathelicidin/Pa-Control of protein Q9I164 (GN=PA2417)) of the same sequence?
A: Its Pa-Ca/Pa-C is 1.295.

Q: And the Pa-Ca/Pa-C (P. aeruginosa 1409; iTRAQ abundance ratio Pa-Cathelicidin/Pa-Control of protein Q9I233 (GN=PA2082))?
A: Its Pa-Ca/Pa-C is 0.8885.

Q: And the Pa-Ca/Pa-C (P. aeruginosa 1409; iTRAQ abundance ratio Pa-Cathelicidin/Pa-Control of protein Q9I300 (GN=PA1737))?
A: Its Pa-Ca/Pa-C is 1.149.

Q: And the Pa-Ca/Pa-C (P. aeruginosa 1409; iTRAQ abundance ratio Pa-Cathelicidin/Pa-Control of protein Q9I342 (GN=mtnB))?
A: The Pa-Ca/Pa-C was 1.093.

Q: And the Pa-Ca/Pa-C (P. aeruginosa 1409; iTRAQ abundance ratio Pa-Cathelicidin/Pa-Control of protein Q9I468 (GN=cobC))?
A: Its Pa-Ca/Pa-C is 0.7767.

Q: What about the Pa-Ca/Pa-C (P. aeruginosa 1409; iTRAQ abundance ratio Pa-Cathelicidin/Pa-Control of protein Q9I538 (GN=PA0919)) of the same sequence?
A: The Pa-Ca/Pa-C was 0.9631.

Q: What about the Pa-Ca/Pa-C (P. aeruginosa 1409; iTRAQ abundance ratio Pa-Cathelicidin/Pa-Control of protein Q9I655 (GN=creB)) of the same sequence?
A: Its Pa-Ca/Pa-C is 0.9495.

Q: What about the Pa-Ca/Pa-C (P. aeruginosa 1409; iTRAQ abundance ratio Pa-Cathelicidin/Pa-Control of protein Q9I656 (GN=PA0462)) of the same sequence?
A: The Pa-Ca/Pa-C was 1.049.

Q: And the Pa-Ca/Pa-C (P. aeruginosa 1409; iTRAQ abundance ratio Pa-Cathelicidin/Pa-Control of protein Q9I673 (GN=PA0444))?
A: The Pa-Ca/Pa-C was 0.9127.

Q: What about the Pa-Ca/Pa-C (P. aeruginosa 1409; iTRAQ abundance ratio Pa-Cathelicidin/Pa-Control of protein Q9I688 (GN=PA0429)) of the same sequence?
A: Its Pa-Ca/Pa-C is 1.007.

Q: What about the Pa-Ca/Pa-C (P. aeruginosa 1409; iTRAQ abundance ratio Pa-Cathelicidin/Pa-Control of protein Q9I700 (GN=bauA)) of the same sequence?
A: The Pa-Ca/Pa-C was 0.9294.

Q: What about the Pa-Ca/Pa-C (P. aeruginosa 1409; iTRAQ abundance ratio Pa-Cathelicidin/Pa-Control of protein Q9X6V8 (GN=PA3998)) of the same sequence?
A: Its Pa-Ca/Pa-C is 1.122.

Q: What about the Pa-Ca/Pa-C (P. aeruginosa 1409; iTRAQ abundance ratio Pa-Cathelicidin/Pa-Control of protein Q51426 (GN=ruvB)) of the same sequence?
A: The Pa-Ca/Pa-C was 1.14.

Q: And the “expression of protein Q9HTV3 (3-octaprenyl-4-hydroxybenzoate carboxy-lyase)” value (P. aeruginosa 1409; [4])?
A: The value was “downregulated”.

Q: And the “expression of protein Q9I298 (putative 3-methylglutaconyl-ConA hydratase)” value (P. aeruginosa 1409; [4])?
A: The value was “downregulated”.

Q: What about the “expression of protein Q9I5V3 (multifunctional CCA protein)” value (P. aeruginosa 1409; treated vs untreated, iTRAQ, levofloxacin change not categorized as differentially expressed) of the same sequence?
A: The value was “downregulated”.

Q: What about the “effect on L929 cells” value [1] of the same sequence?
A: The value was “intact”.

Q: What about the “effect on A549 cells” value [2] of the same sequence?
A: The value was “intact”.

Q: What about the “concentrations at which proliferation of 293FT cells was inhibited” value [3] of the same sequence?
A: Its value is over 50 µg/mL.
